Patent EP4613271A1, “USE OF 1-METHYLNICOTINAMIDE IN PREPARATION OF ANTI-VASCULAR CALCIFICATION DRUG” (The Eight Affiliated Hospital, Sun Yat-Sen University, priority 2023, dated 2024)

How the values were obtained:
[1] = test system: Human vascular smooth muscle cells; assay: bleomycin (BLM) and phosphorus-induced calcification of vascular smooth muscle cells under aging conditions (alizarin red staining, calcium content); format: cell-based; conditions: 100 µM 1-methylnicotinamide, 2.6 mM phosphorus, 1 µg/mL bleomycin, 7 days
Procedure: (§1) • 1. In this example, bleomycin (BLM) and phosphorus were added to induce vascular calcification in vascular smooth muscle cells, and 1-methylnicotinamide or nicotinamide N-methyltransferase inhibitor (NNMTi) was added for intervention for 7 days, and then alizarin red staining was performed to evaluate the inhibitory effect of 1-methylnicotinamide on vascular calcification. The specific procedure was as follows. Human vascular smooth muscle cells of passages 8-12 were plated in a 12-well plate at 1×10^5/well, and 1 mL of DMEM complete medium was added to each well. On the first day after plating, 2.6 mM phosphorus was added to induce calcification, and 100 µM 1-methylnicotinamide or 25 µM nicotinamide N-methyltransferase inhibitor (NNMTi) was added for intervention. […] After 7 days of intervention with 1-methylnicotinamide or nicotinamide N-methyltransferase inhibitor (NNMTi), a calcium content was determined. […]
(§2) Human vascular smooth muscle cells of passages 8-12 were plated in a 6-well plate at 2×10^5/well, and 2 mL of DMEM complete medium was added to each well. […] On the seventh day, the calcium content was determined.

[2] = test system: Human vascular smooth muscle cells; assay: phosphorus-induced calcification of vascular smooth muscle cells (alizarin red staining, calcium content); format: cell-based; conditions: 100 µM 1-methylnicotinamide, 2.6 mM phosphorus, 7 days
Procedure: as §1, with “example,” for “example, bleomycin (BLM) and”, “phosphorus was” for “phosphorus were”, “intervention. On the fourth day, the DMEM complete medium was replaced and 2.6 mM phosphorus was added to induce calcification again, and 100 µM 1-methylnicotinamide or 25 µM nicotinamide N-methyltransferase inhibitor (NNMTi) was added for intervention.” for “intervention.”
as §2

[3] = test system: Human vascular smooth muscle cells; assay: cisplatin (DDP) and phosphorus-induced calcification of vascular smooth muscle cells under aging conditions (alizarin red staining, calcium content); format: cell-based; conditions: 100 µM 1-methylnicotinamide, 2.6 mM phosphorus, 7 days
Procedure: 3. To further verify the effect of 1-methylnicotinamide in inhibiting vascular calcification under aging conditions, cisplatin (DDP) and phosphorus were added to induce calcification in vascular smooth muscle cells. After 7 days of intervention with 1-methylnicotinamide or nicotinamide N-methyltransferase inhibitor (NNMTi), alizarin red staining was performed to further evaluate the inhibitory effect of 1-methylnicotinamide on vascular calcification under aging conditions. The specific procedure was as follows.
Human vascular smooth muscle cells of passages 8-12 were plated in a 12-well plate at 1×10^5/well, and 1 mL of DMEM complete medium was added to each well. On the first day after plating, 2.6 mM phosphorus was added to induce calcification, and 100 µM 1-methylnicotinamide or 25 µM nicotinamide N-methyltransferase inhibitor (NNMTi) was added for intervention. […]
4. Cisplatin and phosphorus were added to induce calcification in vascular smooth muscle cells, and 1-methylnicotinamide or nicotinamide N-methyltransferase inhibitor (NNMTi) was added for intervention for 7 days, and then the calcium content was determined. […]
as §2

[4] = test system: Naturally aged C57BL/6 mice; assay: high-calcium and high-adenine diet-induced vascular calcification in aged mice (aorta alizarin red staining, IHC of aortic rings); format: in vivo; conditions: 2.5 months, 25 months old mice
Procedure: • 1. In this example, a high-calcium and high-adenine diet was used to induce vascular calcification in aged mice. After intervention by using 1-methylnicotinamide for 2.5 months, alizarin red staining was performed on the aorta of the mice to evaluate the inhibitory effect of 1-methylnicotinamide on vascular calcification in aged mice. The specific procedure was as follows.
Naturally aged C57BL/6 mice (25 months old) were randomly divided into a control group (n=10), a high-calcium and high-adenine group (n=10), and a high-calcium and high-adenine + 1-methylnicotinamide group (100 mg/kg/day) (n=10), and were fed with normal feed, high-calcium and high-adenine feed, and high-calcium and high-adenine feed and 1-methylnicotinamide respectively, and water is normally provided for each group. The mice were killed after 2.5 months, and the aortas of the mice were obtained for alizarin red staining.
2. To further verify the effect of 1-methylnicotinamide in inhibiting vascular calcification in aged mice, a high-calcium and high-adenine diet was used to induce vascular calcification in aged mice. After 2.5 months of intervention with 1-methylnicotinamide, the IHC staining was performed on α-smooth muscle actin (α-SMA) and bone morphogenetic protein 2 (BMP2) in mouse aortic rings to further evalaute the inhibitory effect of 1-methylnicotinamide on vascular calcification in aged mice. […]

SMILES: C[n+]1cccc(C(N)=O)c1 [1-methylnicotinamide]
- alizarin red staining ([1]; Panel A of Fig. 3): could significantly inhibit the calcification of bleomycin-induced aged vascular smooth muscle cells
- calcium content ([1]; Panel B of Fig. 3): had the effect of inhibiting vascular calcification under aging conditions
- alizarin red staining ([2]; Fig. 1): could significantly inhibit the occurrence of vascular calcification
- calcium content ([2]; Fig. 2): had the effect of inhibiting vascular calcification
- calcium content ([3]; 1 µM cisplatin, Panel D of Fig. 3): had the effect of inhibiting vascular calcification under aging conditions
- alizarin red staining ([3]; 1 µg/mL cisplatin, Panel C of Fig. 3): could significantly inhibit the calcification of cisplatin-induced aged vascular smooth muscle cells
- alizarin red staining of the aorta ([4]; 100 mg/kg/day 1-methylnicotinamide with high-calcium and high-adenine feed, Panel A of Fig. 4): could significantly inhibit vascular calcification in aged mice
- IHC staining of α-SMA and BMP2 in aortic rings ([4]; 1-methylnicotinamide with high-calcium and high-adenine feed, Panel B of Fig. 4): could significantly inhibit vascular calcification in aged mice
